Measured values as given in patent US8822514B2, “Multi-cyclic compounds and methods of use” (Amgen Inc., priority 2006, dated 2014).

Molecular target: Tie-2 kinase enzyme (Homo sapiens, UniProt Q02763)
Assay: Tie-2 Homogenous Time Resolved Flourescent (HTRF) kinase assay
Type: biochemical
Settings: 0.01 mM ATP, about 90 minutes at RT; read-out: IC50 for the inhibition of Tie-2 as measured by the HTRF assay
Method: IC50's for the inhibition of the Tie-2 kinase enzyme for individual compounds were measured using an HTRF assay, utilizing the following procedure:
In a 96 well plate (available from Costar Co.) was placed 1 uL of each test and standard compound per well in 100% DMSO having a 25 uM final compound concentration (3-fold, 10 point dilution). To each well was added 20 uL of a reaction mix formed from […], 0.05% BSA (0.1 uL; from a 10% stock solution available from Sigma-Aldrich Co.), 0.002 mM of BLC HER-2 KKK (Biotinylated Long chain peptide; 0.04 uL; from a […] stock solution), 0.01 mM concentration of ATP (0.02 uL; commercially available from Sigma-Aldrich Co.) and the remaining solution was water (15.84 uL) to make to a total volume of 20 uL/well.
The reaction was initiated in each well by adding 20 uL per well of an enzyme preparation consisting of a 50 mM concentration of Hepes (1.0 uL; from a 1000 mM stock solution commercially available from Gibco Co.), 0.05% concentration of BSA (0.1 uL), 4 mM of DTT (0.08 uL; from a 1000 mM stock solution available from Sigma-Aldrich Co.), a 2.4×10^−7 concentration of Tie-2 (0.02 uL, from a 4 mM concentration stock), with the remaining volume being water (18.8 uL) to dilute the enzyme preparation to a total volume of 20 uL. The plate was incubated for about 90 minutes at RT. After incubation, a 160 uL of a filtered detection mixture, prepared from 0.001 mg/ml of SA-APC (0.0765 uL; available as a 2.09 mg/ml stock solution from Gibco), 0.03125 nM concentration of Eu-Ab (0.1597 uL; available in a 31.3 nM stock solution from Gibco), with the remaining volume being Detection buffer (159.73 uL), was added to each well to stop the reaction therein. The plate was then allowed to equilibrate for about 3 hr and read on a Ruby Star fluorescent reader (available from BMG Technologies, Inc.) using a 4 parameter fit using activity base to calculate the corresponding IC50's for the test and standard compounds in each well.

Tie-2 kinase enzyme, sequence (Q02763 23-1124): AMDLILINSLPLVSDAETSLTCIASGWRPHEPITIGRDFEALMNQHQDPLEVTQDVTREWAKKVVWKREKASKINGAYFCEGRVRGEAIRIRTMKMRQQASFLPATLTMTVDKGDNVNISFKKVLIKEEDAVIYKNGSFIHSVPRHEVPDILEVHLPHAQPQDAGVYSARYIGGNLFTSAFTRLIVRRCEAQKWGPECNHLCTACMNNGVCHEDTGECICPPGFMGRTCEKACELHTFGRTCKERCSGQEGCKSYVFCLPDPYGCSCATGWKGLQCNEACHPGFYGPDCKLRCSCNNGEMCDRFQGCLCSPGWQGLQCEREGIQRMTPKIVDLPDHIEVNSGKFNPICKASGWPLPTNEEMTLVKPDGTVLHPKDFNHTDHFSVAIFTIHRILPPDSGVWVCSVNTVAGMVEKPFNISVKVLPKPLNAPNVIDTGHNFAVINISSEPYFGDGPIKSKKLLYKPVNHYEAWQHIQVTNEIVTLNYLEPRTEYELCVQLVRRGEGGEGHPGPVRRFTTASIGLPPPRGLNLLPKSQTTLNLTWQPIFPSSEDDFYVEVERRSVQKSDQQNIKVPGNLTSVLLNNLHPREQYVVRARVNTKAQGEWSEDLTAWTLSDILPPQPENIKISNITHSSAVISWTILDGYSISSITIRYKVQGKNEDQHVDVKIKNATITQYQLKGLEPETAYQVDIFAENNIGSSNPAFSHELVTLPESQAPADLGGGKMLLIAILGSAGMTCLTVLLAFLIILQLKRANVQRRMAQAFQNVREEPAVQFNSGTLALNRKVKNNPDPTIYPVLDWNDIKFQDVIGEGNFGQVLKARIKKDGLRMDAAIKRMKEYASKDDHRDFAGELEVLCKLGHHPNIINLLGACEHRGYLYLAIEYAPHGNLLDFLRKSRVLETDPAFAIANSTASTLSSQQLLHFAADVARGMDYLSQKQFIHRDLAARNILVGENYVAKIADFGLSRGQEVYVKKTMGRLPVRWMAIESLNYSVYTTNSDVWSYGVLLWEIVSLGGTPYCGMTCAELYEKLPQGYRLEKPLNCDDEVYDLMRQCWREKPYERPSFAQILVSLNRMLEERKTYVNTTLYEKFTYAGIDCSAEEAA

Question: With `Cc1ccc(C(=O)Nc2cccc(C(C)C)c2)cc1Oc1ncccc1-c1cn[nH]c1` [Example 1, 3-(3-(1H-pyrazol-4-yl)pyridin-2-yloxy)-N-(3-isopropylphenyl)-4-methylbenzamide] as the compound, how does the IC50 read?
Answer: ≤ 100 nM

Question: For `CN(C)CCCN(C)c1ccc(C(F)(F)F)cc1NC(=O)c1cc(Oc2ncccc2-c2cnco2)ccc1F` [Example 2, N-(2-((3-(dimethylamino)propyl)(methyl)amino)-5-(trifluoromethyl)phenyl)-2-fluoro-5-(3-(oxazol-5-yl)pyridin-2-yloxy)benzamide], which IC50 is on record?
Answer: ≤ 500 nM

Question: With `Cc1ccc(C(=O)Nc2cccc(C(C)C)c2)cc1Nc1ncccc1-c1nnn[nH]1` [Example 3, 3-(3-(1H-tetrazol-5-yl)pyridin-2-ylamino)-N-(3-isopropylphenyl)-4-methylbenzamide] as the compound, how does the IC50 read?
Answer: ≤ 1000 nM

Question: For `Cc1ccc(C(=O)Nc2cccc(C(C)C)c2)cc1Oc1ncccc1-c1cnn(Cc2ccccc2)c1` [Example 10, 3-(3-(1-benzyl-1H-pyrazol-4-yl)pyridin-2-yloxy)-N-(3-isopropylphenyl)-4-methylbenzamide], which IC50 is on record?
Answer: ≤ 500 nM

Question: `COc1ccc(C2CCCCC2)cc1NC(=O)c1ccc(C)c(Oc2ncccc2-c2cn[nH]c2)c1` [Example 11, 3-(3-(1H-pyrazol-4-yl)pyridin-2-yloxy)-N-(5-cyclohexyl-2-methoxyphenyl)-4-methylbenzamide] was tested. Which IC50 did it give?
Answer: ≤ 100 nM

Question: How did the IC50 turn out when `Cc1ccc(C(=O)Nc2cccc(C(C)C)c2)cc1Nc1ncccc1-c1nnn[nH]1` [Example 12, 3-(3-(1H-tetrazol-5-yl)pyridin-2-ylamino)-N-(3-isopropylphenyl)-4-methylbenzamide] was run?
Answer: ≤ 500 nM

Question: Which IC50 does the source give for `Cc1ccc(C(=O)Nc2cccc(C(C)C)c2)cc1Oc1ncccc1-c1cnco1` [Example 14, N-(3-isopropylphenyl)-4-methyl-3-(3-(oxazol-5-yl)pyridin-2-yloxy)benzamide] here?
Answer: ≤ 100 nM

Question: Which IC50 does the source give for `Cc1ccc(C(=O)Nc2cccc(C(F)(F)F)c2)cc1Oc1ncccc1-c1ccn[nH]1` [Example 15, 3-(3-(1H-pyrazol-5-yl)pyridin-2-yloxy)-4-methyl-N-(3-(trifluoromethyl)phenyl)benzamide] here?
Answer: ≤ 500 nM

Question: `O=C(Nc1cccc(OC(F)(F)F)c1)c1cc(Oc2ncccc2-c2cnco2)ccc1F` [Example 16, 2-fluoro-5-(3-(oxazol-5-yl)pyridin-2-yloxy)-N-(3-(trifluoromethoxy)phenyl)benzamide] was tested. Which IC50 did it give?
Answer: ≤ 1000 nM

Question: With `Cc1ccc(C(=O)Nc2cccc(C(C)C)c2)cc1Oc1ccccc1-c1cnco1` [Example 18, N-(3-isopropylphenyl)-4-methyl-3-(2-(oxazol-5-yl)phenoxy)benzamide] as the compound, how does the IC50 read?
Answer: ≤ 100 nM

Question: Which IC50 does the source give for `Cc1ccc(C(=O)Nc2cc(C(F)(F)F)ccc2N(C)CCCN(C)C)cc1Oc1ccccc1-c1cnco1` [Example 19, N-(2-((3-(dimethylamino)propyl)(methyl)amino)-5-(trifluoromethyl)phenyl)-4-methyl-3-(2-(oxazol-5-yl)phenoxy)benzamide] here?
Answer: ≤ 500 nM

Question: Which IC50 does the source give for `Cc1ccc(C(=O)Nc2cc(C(F)(F)F)ccc2N(C)CCCN(C)C)cc1Oc1ncccc1-c1cnco1` [Example 20, N-(2-((3-(dimethylamino)propyl)(methyl)amino)-5-(trifluoromethyl)phenyl)-4-methyl-3-(3-(oxazol-5-yl)pyridin-2-yloxy)benzamide] here?
Answer: ≤ 500 nM

Question: For `Cc1ccc(C(=O)Nc2cccc(C(F)(F)F)c2)cc1Oc1ncccc1-c1cnco1` [Example 22, 4-methyl-3-(3-(oxazol-5-yl)pyridin-2-yloxy)-N-(3-(trifluoromethyl)phenyl)benzamide], which IC50 is on record?
Answer: ≤ 100 nM

Question: Which IC50 does the source give for `O=C(Nc1ccc(Oc2ncccc2-c2cn[nH]c2)cc1)c1ccccc1Nc1ccccc1` [Example 23, N-(4-(3-(1H-pyrazol-4-yl)pyridin-2-yloxy)phenyl)-2-(phenylamino)benzamide] here?
Answer: ≤ 1000 nM
